# Assay results published in ChEMBL document CHEMBL1909046, “DrugMatrix in vitro pharmacology data”.
# Assays:
# [1] = biological target: T1, Alpha-1A adrenergic receptor (Rattus norvegicus, UniProt P43140); assay: DRUGMATRIX: Alpha-1A adrenergic receptor radioligand binding (ligand: prazosin); format: cell membranes, Wistar, Submaxillary gland, Membrane; conditions: Not Active = under 50% inhibition at 10 µM
# T1 sequence (P43140 whole entry): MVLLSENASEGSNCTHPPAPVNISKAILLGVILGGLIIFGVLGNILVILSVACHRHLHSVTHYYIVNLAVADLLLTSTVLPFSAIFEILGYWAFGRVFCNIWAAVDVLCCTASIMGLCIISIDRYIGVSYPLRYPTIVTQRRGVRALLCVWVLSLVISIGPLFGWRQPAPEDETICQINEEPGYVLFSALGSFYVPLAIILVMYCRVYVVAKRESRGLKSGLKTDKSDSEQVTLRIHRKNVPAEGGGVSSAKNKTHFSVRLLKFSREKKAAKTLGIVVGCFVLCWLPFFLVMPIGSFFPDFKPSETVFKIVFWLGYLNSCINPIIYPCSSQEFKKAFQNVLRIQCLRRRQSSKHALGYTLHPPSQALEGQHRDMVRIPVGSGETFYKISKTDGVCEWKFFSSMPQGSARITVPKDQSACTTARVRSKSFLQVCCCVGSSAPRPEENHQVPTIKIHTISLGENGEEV
# [2] = biological target: T2, Substance-K receptor (Homo sapiens, UniProt P21452); format: cell membranes, CHO, Membrane; conditions: cho; also: in other assays of this panel Not Active means under 50% inhibition at 10 µM
# T2 sequence (P21452 whole entry): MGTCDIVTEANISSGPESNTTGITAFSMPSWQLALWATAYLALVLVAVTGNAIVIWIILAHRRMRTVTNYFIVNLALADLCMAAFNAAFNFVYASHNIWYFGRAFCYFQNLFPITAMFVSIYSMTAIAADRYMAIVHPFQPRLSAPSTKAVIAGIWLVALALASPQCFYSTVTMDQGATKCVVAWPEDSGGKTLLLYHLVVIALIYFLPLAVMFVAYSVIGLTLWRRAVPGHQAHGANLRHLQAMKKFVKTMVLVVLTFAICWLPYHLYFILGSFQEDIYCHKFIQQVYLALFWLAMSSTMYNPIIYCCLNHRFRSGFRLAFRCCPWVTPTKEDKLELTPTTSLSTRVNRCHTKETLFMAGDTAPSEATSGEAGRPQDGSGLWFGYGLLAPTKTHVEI
# [3] = biological target: T3, Cholecystokinin receptor type A (Homo sapiens, UniProt P32238); format: cell membranes, Membrane; conditions: 1321-n1; also: in other assays of this panel Not Active means under 50% inhibition at 10 µM
# T3 sequence (P32238 whole entry): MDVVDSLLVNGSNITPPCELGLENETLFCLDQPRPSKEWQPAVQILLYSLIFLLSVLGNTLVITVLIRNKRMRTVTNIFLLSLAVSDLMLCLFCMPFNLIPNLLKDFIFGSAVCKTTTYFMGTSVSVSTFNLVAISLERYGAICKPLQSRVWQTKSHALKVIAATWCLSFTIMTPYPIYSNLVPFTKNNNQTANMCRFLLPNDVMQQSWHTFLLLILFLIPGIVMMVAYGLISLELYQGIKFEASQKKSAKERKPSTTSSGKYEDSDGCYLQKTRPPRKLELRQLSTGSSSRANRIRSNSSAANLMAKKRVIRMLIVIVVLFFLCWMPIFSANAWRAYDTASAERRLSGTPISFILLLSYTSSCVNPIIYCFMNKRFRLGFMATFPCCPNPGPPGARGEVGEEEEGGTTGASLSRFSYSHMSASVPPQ
# [4] = DRUGMATRIX: GABAA, Chloride Channel, TBOB radioligand binding (ligand: [3H] TBOB); format: cell membranes, Rattus norvegicus, Wistar, Cerebral cortex, Membrane; conditions: Not Active = under 50% inhibition at 10 µM
# [5] = biological target: T4, Polyunsaturated fatty acid lipoxygenase ALOX15 (Oryctolagus cuniculus, UniProt P12530); assay: biochemical; format: tissue-based, Reticulocytes;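 also: inhibition of 15-lipoxygenase enzyme activity measured with linoleic acid as the substrate; in other assays of this panel Not Active means under 50% inhibition at 10 µM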
# T4 sequence (P12530 whole entry): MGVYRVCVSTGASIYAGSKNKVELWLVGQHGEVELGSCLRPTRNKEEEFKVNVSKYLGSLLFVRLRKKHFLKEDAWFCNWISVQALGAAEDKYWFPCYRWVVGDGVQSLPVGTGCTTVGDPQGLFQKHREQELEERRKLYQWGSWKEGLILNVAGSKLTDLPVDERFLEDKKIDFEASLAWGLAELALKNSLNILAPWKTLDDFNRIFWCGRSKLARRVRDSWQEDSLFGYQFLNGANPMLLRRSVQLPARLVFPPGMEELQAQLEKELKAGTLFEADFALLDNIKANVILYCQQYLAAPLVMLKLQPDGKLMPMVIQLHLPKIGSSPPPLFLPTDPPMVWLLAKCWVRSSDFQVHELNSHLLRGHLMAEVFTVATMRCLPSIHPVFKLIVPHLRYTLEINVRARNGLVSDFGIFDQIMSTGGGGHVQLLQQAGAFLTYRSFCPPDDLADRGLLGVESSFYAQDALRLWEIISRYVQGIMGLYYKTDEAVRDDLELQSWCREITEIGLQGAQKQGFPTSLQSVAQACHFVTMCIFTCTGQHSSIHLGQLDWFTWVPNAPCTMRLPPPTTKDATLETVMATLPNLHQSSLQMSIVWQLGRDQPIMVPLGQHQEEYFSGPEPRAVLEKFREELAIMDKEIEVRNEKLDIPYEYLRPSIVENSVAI
# [6] = biological target: Platelet-activating factor receptor (Homo sapiens, UniProt P25105); format: tissue-based; also: in other assays of this panel Not Active means under 50% inhibition at 10 µM
# Platelet-activating factor receptor, sequence (P25105 whole entry): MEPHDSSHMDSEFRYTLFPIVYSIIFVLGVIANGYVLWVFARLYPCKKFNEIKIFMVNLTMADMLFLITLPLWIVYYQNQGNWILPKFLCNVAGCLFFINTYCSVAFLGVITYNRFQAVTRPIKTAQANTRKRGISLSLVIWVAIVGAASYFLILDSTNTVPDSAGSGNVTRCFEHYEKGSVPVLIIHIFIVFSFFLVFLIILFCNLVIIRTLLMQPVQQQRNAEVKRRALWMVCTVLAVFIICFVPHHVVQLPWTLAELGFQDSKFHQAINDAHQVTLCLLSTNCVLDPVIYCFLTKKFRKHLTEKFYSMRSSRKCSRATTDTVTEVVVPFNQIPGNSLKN
# [7] = DRUGMATRIX: Purinergic P2X radioligand binding (ligand: [3H] alpha, beta-Methylene-ATP); format: cell membranes, Oryctolagus cuniculus, New Zealand albino, Urinary bladder, Membrane; conditions: Not Active = under 50% inhibition at 10 µM
Compound,IC50 [1],IC50 [2],IC50 [3],IC50 [4],Ki [4],IC50 ([5]; reticulocytes),IC50 [6],IC50 [7],Ki [7],IC50 ([5]; read-out: IC50) [nM],Ki [1],Ki [2],Ki [3],Ki ([5]; reticulocytes),Ki [6],IC50 ([1]; read-out: IC50) [nM],Ki ([1]; read-out: Ki) [nM]
CCOc1cc(N)c(Cl)cc1C(=O)NCC1CN(Cc2ccc(F)cc2)CCO1 (stereo unspecified) [MOSAPRIDE],Not Active,Not Active,Not Active,Not Active,Not Active,Not Active,Not Active,Not Active,Not Active,,,,,,,,
O=C(c1ccccc1)c1ccc2n1CCC2C(=O)O (stereo unspecified) [KETOROLAC],Not Active,Not Active,Not Active,Not Active,Not Active,Not Active,Not Active,Not Active,Not Active,,,,,,,,
Nc1nc(N)c2nc(-c3ccccc3)c(N)nc2n1,Not Active,Not Active,Not Active,Not Active,Not Active,Not Active,Not Active,Not Active,Not Active,,,,,,,,
Oc1ccc(/C=C/c2cc(O)cc(O)c2)cc1 [RESVERATROL],Not Active,Not Active,Not Active,Not Active,Not Active,Not Active,Not Active,Not Active,Not Active,,,,,,,,
Cc1ccnc(NS(=O)(=O)c2ccc(N)cc2)n1 [SULFAMERAZINE],Not Active,Not Active,Not Active,Not Active,Not Active,Not Active,Not Active,Not Active,Not Active,,,,,,,,
CCN1CCCC1CNC(=O)c1cc(S(N)(=O)=O)ccc1OC (stereo unspecified) [SULPIRIDE],Not Active,Not Active,Not Active,Not Active,Not Active,Not Active,Not Active,Not Active,Not Active,,,,,,,,
O=C1CC[C@@]2(O)[C@H]3Cc4ccc(O)c5c4[C@@]2(CCN3CC2CC2)[C@H]1O5 [NALTREXONE],Not Active,Not Active,Not Active,Not Active,Not Active,Not Active,Not Active,Not Active,Not Active,,,,,,,,
CCN(CC)C(=S)SSC(=S)N(CC)CC,Not Active,Not Active,Not Active,Not Active,Not Active,,Not Active,Not Active,Not Active,16100,,,,,,,
O=C(OC[C@H]1O[C@@H](OC(=O)c2cc(O)c(O)c(OC(=O)c3cc(O)c(O)c(O)c3)c2)[C@H](OC(=O)c2cc(O)c(O)c(OC(=O)c3cc(O)c(O)c(O)c3)c2)[C@@H](OC(=O)c2cc(O)c(O)c(OC(=O)c3cc(O)c(O)c(O)c3)c2)[C@@H]1OC(=O)c1cc(O)c(O)c(OC(=O)c2cc(O)c(O)c(O)c2)c1)c1cc(O)c(O)c(OC(=O)c2cc(O)c(O)c(O)c2)c1 [TANNIC ACID],Not Active,Not Active,Not Active,Not Active,Not Active,,Not Active,Not Active,Not Active,268,,,,,,,
C=CCc1ccc2c(c1)OCO2 [SAFROLE],Not Active,Not Active,Not Active,Not Active,Not Active,Not Active,Not Active,Not Active,Not Active,,,,,,,,
C#C[C@]1(O)CC[C@H]2[C@@H]3[C@H](C)CC4=C(CCC(=O)C4)[C@H]3CC[C@@]21C [TIBOLONE],Not Active,Not Active,Not Active,Not Active,Not Active,Not Active,Not Active,Not Active,Not Active,,,,,,,,
CC[C@@]1(O)C(=O)OCc2c1cc1n(c2=O)Cc2cc3c(CN(C)C)c(O)ccc3nc2-1 [TOPOTECAN],Not Active,Not Active,Not Active,Not Active,Not Active,Not Active,Not Active,Not Active,Not Active,,,,,,,,
CC1(C)[C@H](C(=O)O)N2C(=O)C[C@H]2S1(=O)=O [SULBACTAM],Not Active,Not Active,Not Active,Not Active,Not Active,Not Active,Not Active,Not Active,Not Active,,,,,,,,
CCN(CC)N=O [N-NITROSODIETHYLAMINE],Not Active,Not Active,Not Active,Not Active,Not Active,Not Active,Not Active,Not Active,Not Active,,,,,,,,
C[C@]12CCC(=O)C[C@@H]1CC[C@@H]1[C@@H]2CC[C@]2(C)[C@@H](O)CC[C@@H]12 [STANOLONE],Not Active,Not Active,Not Active,Not Active,Not Active,Not Active,Not Active,Not Active,Not Active,,,,,,,,
Cc1cccc(C)c1NC(=O)C(C)N (stereo unspecified) [TOCAINIDE],Not Active,Not Active,Not Active,Not Active,Not Active,Not Active,Not Active,Not Active,Not Active,,,,,,,,
LEAD(IV) ACETATE,Not Active,Not Active,Not Active,Not Active,Not Active,Not Active,Not Active,Not Active,Not Active,,Not Active,Not Active,Not Active,Not Active,Not Active,,
CC#C[C@]1(O)CC[C@H]2[C@@H]3CCC4=CC(=O)CCC4=C3[C@@H](c3ccc(N(C)C)cc3)C[C@@]21C [MIFEPRISTONE],Not Active,Not Active,Not Active,Not Active,Not Active,,Not Active,Not Active,Not Active,555,,,,,,,
CS(=O)(=O)c1ccc(C2=C(c3ccccc3)C(=O)OC2)cc1 [ROFECOXIB],Not Active,Not Active,Not Active,Not Active,Not Active,Not Active,Not Active,Not Active,Not Active,,,,,,,,
Cc1cc2c(s1)Nc1ccccc1N=C2N1CCN(C)CC1 [OLANZAPINE],,Not Active,Not Active,,,,Not Active,,,2770,,,,,,,
CNCCCC12CCC(c3ccccc31)c1ccccc12 [MAPROTILINE],,Not Active,Not Active,,,Not Active,Not Active,,,,,,,,,567,230
CN(C)CCC=C1c2ccccc2COc2ccccc21 [DOXEPIN],,Not Active,,,,Not Active,Not Active,,,,,,,,,107,43
